Experimental data published in paper PMC6896446, “Design, synthesis and molecular modelling studies of some pyrazole derivatives as carbonic anhydrase inhibitors” (Journal of Enzyme Inhibition and Medicinal Chemistry, 2019).
Where two headings read alike, the source gives them in different places.

Experiments:
hCA I = biological target: T1, hCA I (Homo sapiens, UniProt P00915); experiment: hCA I inhibition, esterase activity method (4-nitrophenylacetate); type: biochemical; conditions: for IC50: against hCA I
T1 construct: The hCA I and II isoenzymes used here were purified from human blood as previously described; from tissue; host or cells: human blood
T1 sequence (P00915 whole entry): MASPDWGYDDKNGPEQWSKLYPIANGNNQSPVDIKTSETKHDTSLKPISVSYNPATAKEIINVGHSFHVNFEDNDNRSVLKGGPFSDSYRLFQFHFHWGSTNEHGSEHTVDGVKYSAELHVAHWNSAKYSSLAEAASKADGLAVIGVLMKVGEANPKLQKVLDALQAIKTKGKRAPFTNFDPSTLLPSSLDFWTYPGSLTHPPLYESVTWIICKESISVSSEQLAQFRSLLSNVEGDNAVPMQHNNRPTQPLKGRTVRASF

hCA II = biological target: T2, hCA II (Homo sapiens, UniProt P00918); experiment: hCA II inhibition, esterase activity method (4-nitrophenylacetate); type: biochemical
T2 construct: The hCA I and II isoenzymes used here were purified from human blood as previously described; from tissue; host or cells: human blood

[1] = esterase method, 4-nitrophenylacetate, pH 7.4, 25 °C, mean from at least three determinations, read-out: Ki hCA I
[2] = esterase method, 4-nitrophenylacetate, pH 7.4, 25 °C, mean from at least three determinations, read-out: Ki hCA II

Ki (hCA I; [1]) [nM] | Ki (hCA II; [2]) [nM] | SMILES | other results
16.9 | 67.4 | COc1cc(/C=C/C(=O)c2ccc(C)cc2)cc(OC)c1OC [Compound 3, (E)-1-p-tolyl-3-(3,4,5-trimethoxyphenyl)prop-2-en-1-one] | –
12.2 | – | COc1cc(C2CC(c3ccc(N)cc3)=NN2C(N)=S)cc(OC)c1OC (stereo not drawn) [Compound 6, 3-(4-Aminophenyl)-5-(3,4,5-trimethoxyphenyl)-4,5-dihydro-1H-pyrazole-1-carbothioamide] | IC50 (hCA I): 23.9 to 24.4 nM
12.6 | – | COc1cc(C2CC(c3ccc(Br)cc3)=NN2C(N)=S)cc(OC)c1OC (stereo not drawn) [Compound 7, 3-(4-Bromophenyl)-5-(3,4,5-trimethoxyphenyl)-4,5-dihydro-1H-pyrazole-1-carbothioamide] | –
11 | 26.1 | COc1cc(C2CC(c3ccc(C)cc3)=NN2C(N)=S)cc(OC)c1OC (stereo not drawn) [Compound 8, 3-p-Tolyl-5-(3,4,5-trimethoxyphenyl)-4,5-dihydro-1H-pyrazole-1-carbothioamide] | –
8.03 | 17.1 | COc1cc(/C=C/C(=O)c2ccc(Br)cc2)cc(OC)c1OC [Compound 2, (E)-1-(4-bromophenyl)-3-(3,4,5-trimethoxyphenyl)prop-2-en-1-one] | –
11.9 | 41.3 | CN(C)c1ccc(C2CC(c3ccc(O)cc3)=NN2C(N)=S)cc1 (stereo not drawn) [Compound 10, 5-(4-(Dimethylamino)phenyl)-3-(4-hydroxyphenyl)-4,5-dihydro-1H-pyrazole-1-carbothioamide] | IC50 (hCA I): 23.9 to 24.4 nM; selectivity ratio (SR) hCA I versus hCA II (hCA I; hCA I versus hCA II): 3.46; melting point: 180 to 182 °C
– | – | CN(C)c1ccc(/C=C/C(=O)c2ccc(O)cc2)cc1 [Compound 5, (E)-3-(4-(dimethylamino)phenyl)-1-(4-hydroxyphenyl)prop-2-en-1-one] | Ki (hCA I): 8.28 nM; Ki (hCA II): 11.8 nM
– | – | COc1cc(/C=C/C(=O)c2ccc(N)cc2)cc(OC)c1OC [Compound 1, (E)-1-(4-aminophenyl)-3-(3,4,5-trimethoxyphenyl)prop-2-en-1-one] | Ki (hCA II): 33.8 nM

SMILES | Ki (hCA I; [1]) [nM] | Ki (hCA II; [2]) [nM] | other results
COc1ccc(/C=C/C(=O)c2ccc(N)cc2)cc1OC [Compound 4, (E)-1-(4-aminophenyl)-3-(3,4-dimethoxyphenyl)prop-2-en-1-one] | 9.71 | 21.5 | –
COc1ccc(C2CC(c3ccc(N)cc3)=NN2C(N)=S)cc1OC (stereo not drawn) [Compound 9, 3-(4-Aminophenyl)-5-(3,4-dimethoxyphenyl)-4,5-dihydro-1H-pyrazole-1-carbothioamide] | – | 20.4 | Ki (hCA I): 5.13 nM
